Here are results for one substance from article PMC2912373, “Low-Density Lipoprotein Receptor-Related Protein 1 (LRP1) Mediates Neuronal Aβ42 Uptake and Lysosomal Trafficking” (PLoS ONE, 2010).

The test system of one assay is N2a-mLRP4 cells. Briefly: Co-localization of internalized FAM-Aβ42 with LysoTracker, confocal microscopy. It counts as cell-based, mouse. The protocol:
To determine whether internalized Aβ42 is accumulated over time, we performed continuous feeding experiments of FAM-Aβ42 in N2a-pcDNA3 and N2a-mLRP4 cells. The steady-state levels and localization of Aβ42 were determined by flow cytometry and confocal microscopy, respectively (Fig. 2). Cells were incubated with 500 nM FAM-Aβ42 at 37°C for 24, 48 or 72 h and the content of fluorescence per cell was quantified by FACS and presented as a percentage of the levels in N2a-pcDNA3 at each time point (Fig. 2A). […] Therefore, we analyzed the subcellular localization of internalized FAM-Aβ42 by confocal microscopy in N2a cells treated as before and analyzed co-localization with lysosomes. For the visualization of acidic organelles, a brief incubation with LysoTracker Red at the end of the experiment was included (Fig. 2B). After 24 h of incubation, a small amount of cell-associated Aβ42 can be detected in N2a-mLRP4 cells.
Figure 2 Increased accumulation of intracellular Aβ42 within lysosomes in LRP1 minireceptor-expressing cells. A, increased Aβ42 accumulation in LRP1 minireceptor-expressing cells. N2a-mLRP4 and N2a-pcDNA3 cells were treated with 500 nM of FAM-Aβ42 at 37°C for 24, 48 and 72 h, and steady-state levels of intracellular Aβ42 were determined by flow cytometric analyses of pronase-treated cells as described in the Experimental Procedures. […] B, increased co-localization of intracellular Aβ42 and lysosomes in N2a-mLRP4 cells. N2a-pcDNA3 and N2a-mLRP4 cells were grown in glass chamber slides and treated with 500 nM of FAM-Aβ42 at 37°C for 24, 48 and 72 h. Lysosomes were labeled with LysoTracker 30 min before the end of each incubation. Cells were then fixed and analyzed by confocal microscopy.
For the imaging experiments, stable N2a cells were plated into an 8-well chambered coverglass at 16,250 cells/cm^2 with one independent chambered coverglass for each time point, and cells were grown overnight. […] Cells were then fixed and analyzed by a confocal laser scanning microscope (Fluoview 500, Olympus) using a 40x objective lens. […]

The next assay concerns GT1-7 cells. Briefly: FAM-Aβ42 internalization after LRP1 siRNA knockdown, FACS. Type of assay: cell-based. Conditions: 500 nM FAM-Aβ42, 37°C, 4 h, 72 h after LRP1 siRNA; FACS of pronase-treated cells. The protocol: To rule out cell type-specific effects and artifacts due to the expression of LRP1 minireceptor, we performed similar FAM-Aβ42 uptake experiments in GT1-7 neuronal cells with reduced endogenous LRP1 levels by siRNA knockdown (Fig. 3A), and in mouse embryonic fibroblasts from both wild-type (MEF1) and LRP1 knockout mice (MEF2) (Fig. 3B). GT1-7 cells were plated and treated as indicated in the Experimental Procedures and GT1-7 and MEF cells were incubated with 500 nM of FAM-Aβ42 at 37°C for 4 h. Steady-state levels of intracellular Aβ42 were determined by flow cytometric analysis of pronase-treated cells. […]
Figure 3 LRP1 mediates internalization and accumulation of Aβ42 in GT1-7 and MEF cells. […] After 72 h, cells were treated with 500 nM FAM-Aβ42 for 4 h and intracellular Aβ42 was determined by flow cytometric analyses of pronase-treated cells as described in the Experimental Procedures. […] Wild type (MEF1) and LRP1 knockout (MEF2) fibroblasts were treated with 500 nM FAM-Aβ42 for 4 h, and intracellular Aβ42 was determined by flow cytometric analyses. ** p<0.01, t-test. n = 3. C, cell lysates from GT1-7 and MEF cells treated as in A and B, analyzed by 7.5% SDS-PAGE, and Western blotted with anti-LRP1 antibodies.
For quantification of Aβ uptake experiments, stable N2a cells were plated into 12-well plates at 16,250 cells/cm^2 and grown overnight. […]

With “FAM-Aβ42: FAM-Aβ42 peptide (23526) from Anaspec; amyloid-β 42 with carboxyfluorescein at the N-terminal region”, the “co-localization of intracellular accumulated Aβ42 with LysoTracker” value in the assay with N2a-mLRP4 cells (500 nM FAM-Aβ42, 37°C, 24, 48 and 72 h, N2a-mLRP4, increased over time) is given as “highly co-localized with LysoTracker”. The “localization of Aβ42 into LysoTracker-positive organelles” value with N2a-mLRP4 cells (500 nM FAM-Aβ42, 37°C, 48 and 72 h, both N2a-pcDNA3 and N2a-mLRP4 cells) is “increased localization”. For the same substance, the “localization of cell-associated FAM-Aβ42 into acidic organelles (LysoTracker)” value in the assay with N2a-mLRP4 cells (500 nM FAM-Aβ42, 37°C, 24 h, 100 nM LysoTracker Red last 30 min, N2a-mLRP4) is reported as “does not localize into acidic organelles”. Also, the “internalization of FAM-Aβ42 in cells with decreased LRP1 levels vs scrambled siRNA control” value in the assay with GT1-7 cells is given as “decrease”.
